Active and inactive are the calls of the source. No cut-off for these calls is given here.

The values below come from ChEMBL document CHEMBL1155301, “Optimization of the aminopyridopyrazinones class of PDE5 inhibitors: discovery of 3-[(trans-4-hydroxycyclohexyl)amino]-7-(6-methoxypyridin-3-yl)-1-(2-propoxyethyl)pyrido[3,4-b]pyrazin-2(1H)-one” (Bioorg Med Chem Lett, 2009).

In one data set the target is cGMP-specific 3',5'-cyclic phosphodiesterase (Homo sapiens, UniProt O76074). The data set can be described thus: Inhibition of PDE5.
Details: not given
As to `CCCOCCn1c(=O)c(NCC(=O)N(C)C)nc2ncc(-c3ccc(OC)nc3)cc21`, the IC50 (usually the concentration needed to halve the response being measured) stood at 2.59 nM. In other words, the single-digit nanomolar range.

As for `CCCOCCn1c(=O)c(NCC(=O)N2CCC(O)CC2)nc2cnc(-c3ccc(OC)nc3)cc21`, the half-maximal inhibitory concentration (IC50) was 0.13 nM.

As for `CCCOCCn1c(=O)c(N[C@H](CC)CO)nc2cnc(-c3ccc(OC)nc3)cc21`, the half-maximal inhibitory concentration (IC50) came to 0.25 nM.

In the case of `CCCOCCn1c(=O)c(NCCN)nc2cnc(-c3ccc(OC)nc3)cc21`, half-maximal inhibition (IC50) was put at 0.25 nM.

`CCCOCCn1c(=O)c(NCCN(C)C)nc2cnc(-c3ccc(OC)nc3)cc21` yielded a half-maximal inhibitory concentration (IC50) of 0.78 nM.

Molecule `CCCOCCn1c(=O)c(NC[C@@H](C)O)nc2ncc(-c3ccc(OC)nc3)cc21` yielded an IC50 of 0.54 nM.

With `CCCOCCn1c(=O)c(NCC(=O)NC)nc2ncc(-c3ccc(OC)nc3)cc21`, inhibition was half-maximal at 0.43 nM (IC50).

Turning to `CCCOCCn1c(=O)c(NCC(=O)N2CCN(C)CC2)nc2cnc(-c3ccc(OC)nc3)cc21`, the IC50 is 0.07 nM.

For `CCCOCCn1c(=O)c(NCC2CCOCC2)nc2ncc(-c3ccc(OC)nc3)cc21`, the IC50 is 0.14 nM. This IC50 lies about 2-fold higher than the previous one.

Consider `CCCOCCn1c(=O)c(NCCCO)nc2ncc(-c3ccc(OC)nc3)cc21`, for which half-maximal inhibition (IC50) required 0.71 nM.

The target of the next data set is Rod cGMP-specific 3',5'-cyclic phosphodiesterase subunit alpha (Homo sapiens, UniProt P16499). Briefly: Inhibition of PDE6.
Rod cGMP-specific 3',5'-cyclic phosphodiesterase subunit alpha, sequence (P16499 whole entry): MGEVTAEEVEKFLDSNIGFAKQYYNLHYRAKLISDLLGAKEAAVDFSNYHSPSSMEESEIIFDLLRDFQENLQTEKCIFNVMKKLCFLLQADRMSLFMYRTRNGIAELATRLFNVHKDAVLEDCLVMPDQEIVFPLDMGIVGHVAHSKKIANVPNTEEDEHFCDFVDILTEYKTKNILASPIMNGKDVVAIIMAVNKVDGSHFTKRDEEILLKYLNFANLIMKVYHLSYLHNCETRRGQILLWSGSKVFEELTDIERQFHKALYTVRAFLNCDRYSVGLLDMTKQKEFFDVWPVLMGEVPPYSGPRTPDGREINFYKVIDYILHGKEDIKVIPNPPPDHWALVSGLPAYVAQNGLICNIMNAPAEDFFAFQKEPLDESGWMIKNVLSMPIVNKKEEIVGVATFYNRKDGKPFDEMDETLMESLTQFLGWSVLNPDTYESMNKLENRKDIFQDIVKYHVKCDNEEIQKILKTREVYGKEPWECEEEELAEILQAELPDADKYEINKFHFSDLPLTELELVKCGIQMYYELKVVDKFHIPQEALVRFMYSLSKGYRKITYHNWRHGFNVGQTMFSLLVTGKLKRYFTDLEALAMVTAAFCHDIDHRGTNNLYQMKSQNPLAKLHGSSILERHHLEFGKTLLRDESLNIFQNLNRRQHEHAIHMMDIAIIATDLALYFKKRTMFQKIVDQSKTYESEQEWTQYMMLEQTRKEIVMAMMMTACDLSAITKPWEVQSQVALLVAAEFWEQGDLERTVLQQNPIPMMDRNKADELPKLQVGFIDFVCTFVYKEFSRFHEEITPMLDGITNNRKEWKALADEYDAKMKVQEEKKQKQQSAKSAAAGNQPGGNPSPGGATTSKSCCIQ
Details: not given
`CCCOCCn1c(=O)c(NCC(=O)N(C)C)nc2ncc(-c3ccc(OC)nc3)cc21` gave an IC50 of 398 nM. That is a sub-micromolar value.

As to `CCCOCCn1c(=O)c(NCC(=O)N2CCC(O)CC2)nc2cnc(-c3ccc(OC)nc3)cc21`, half-maximal inhibition (IC50) was put at 24.6 nM.

The molecule `CCCOCCn1c(=O)c(N[C@H](CC)CO)nc2cnc(-c3ccc(OC)nc3)cc21` yielded an IC50 of 23.2 nM.

Molecule `CCCOCCn1c(=O)c(NCCN)nc2cnc(-c3ccc(OC)nc3)cc21` returned an IC50 of 1210 nM.

The molecule `CCCOCCn1c(=O)c(NCCN(C)C)nc2cnc(-c3ccc(OC)nc3)cc21` returned a half-maximal inhibitory concentration (IC50) of 261 nM.

`CCCOCCn1c(=O)c(NC[C@@H](C)O)nc2ncc(-c3ccc(OC)nc3)cc21` had a half-maximal inhibitory concentration (IC50) of 49.7 nM.

`CCCOCCn1c(=O)c(NCC(=O)NC)nc2ncc(-c3ccc(OC)nc3)cc21` showed a half-maximal inhibitory concentration (IC50) of 115 nM.

As to `CCCOCCn1c(=O)c(NCC(=O)N2CCN(C)CC2)nc2cnc(-c3ccc(OC)nc3)cc21`, the IC50 turned out to be 14.7 nM.

The molecule `CCCOCCn1c(=O)c(NCC2CCOCC2)nc2ncc(-c3ccc(OC)nc3)cc21` yielded a 50% inhibitory concentration (IC50) of 31.4 nM.

As to `CCCOCCn1c(=O)c(NCCCO)nc2ncc(-c3ccc(OC)nc3)cc21`, it took 124 nM to reach half-maximal inhibition (IC50).

Another data set has as its system Rattus norvegicus. The data set can be described thus: Antihypertensive activity against telemeterized rat at 10 mg/kg, po. It counts as functional, organism-based. The arrangement: dose 10 mg/kg.
Details: not given
With `CCCOCCn1c(=O)c(NCC(=O)N(C)C)nc2ncc(-c3ccc(OC)nc3)cc21`, the outcome was Active.

`CCCOCCn1c(=O)c(NCC2CCOCC2)nc2ncc(-c3ccc(OC)nc3)cc21`: the result was Active.

System in a further data set: not listed separately
The data set can be described thus: Clearance in rat at 2 mg/kg, po and 2 mg/kg, iv. It counts as ADME, organism-based. Particulars: in vivo.
In turn, `CCCOCCn1c(=O)c(NCC(=O)N(C)C)nc2ncc(-c3ccc(OC)nc3)cc21` yielded a clearance of 33 mL/min/kg.

The molecule `CCCOCCn1c(=O)c(NCC(=O)N2CCC(O)CC2)nc2cnc(-c3ccc(OC)nc3)cc21` came in with a clearance of 10.5 mL/min/kg.

`CCCOCCn1c(=O)c(N[C@H](CC)CO)nc2cnc(-c3ccc(OC)nc3)cc21`: the clearance came out at 22.6 mL/min/kg.

`CCCOCCn1c(=O)c(NCC(=O)NC)nc2ncc(-c3ccc(OC)nc3)cc21` displayed a clearance of 19.5 mL/min/kg.

The molecule `CCCOCCn1c(=O)c(NCC2CCOCC2)nc2ncc(-c3ccc(OC)nc3)cc21` registered a clearance of 30 mL/min/kg.

System in a further data set: not listed separately
Briefly: Oral bioavailability in rat at 2 mg/kg. The data set is classed as ADME, organism-based. Conditions: in vivo.
On to `CCCOCCn1c(=O)c(NCC(=O)N(C)C)nc2ncc(-c3ccc(OC)nc3)cc21`, for which the bioavailability (as a rule, the share of a dose that reaches the circulation, judged against a reference dose that is usually intravenous) amounted to 46%.

As to `CCCOCCn1c(=O)c(NCC(=O)N2CCC(O)CC2)nc2cnc(-c3ccc(OC)nc3)cc21`, the bioavailability turned out to be 52%.

The molecule `CCCOCCn1c(=O)c(N[C@H](CC)CO)nc2cnc(-c3ccc(OC)nc3)cc21` gave a bioavailability of 61%.

In turn, `CCCOCCn1c(=O)c(NCC(=O)NC)nc2ncc(-c3ccc(OC)nc3)cc21` had a bioavailability of 39%.

In turn, `CCCOCCn1c(=O)c(NCC2CCOCC2)nc2ncc(-c3ccc(OC)nc3)cc21` showed a bioavailability of 15%.

System in the next data set: not listed separately
Briefly: Volume of distribution in rat at 2 mg/kg, iv and 2 mg/kg, po. It counts as ADME, organism-based. Conditions: in vivo.
Molecule `CCCOCCn1c(=O)c(NCC(=O)N(C)C)nc2ncc(-c3ccc(OC)nc3)cc21` returned a Vd of 1.1 L/kg.

`CCCOCCn1c(=O)c(NCC(=O)N2CCC(O)CC2)nc2cnc(-c3ccc(OC)nc3)cc21`: the Vd was determined as 1 L/kg.

The molecule `CCCOCCn1c(=O)c(N[C@H](CC)CO)nc2cnc(-c3ccc(OC)nc3)cc21` came in with a Vd of 2.4 L/kg.

`CCCOCCn1c(=O)c(NCC(=O)NC)nc2ncc(-c3ccc(OC)nc3)cc21` displayed a Vd of 1 L/kg.

System in a further data set: not listed separately
The data set can be described thus: Volume of distribution in dog at 2 mg/kg, iv and 2 mg/kg, po. The data set is classed as ADME, organism-based, Canis lupus familiaris. Conditions: in vivo.
In turn, `CCCOCCn1c(=O)c(NCC(=O)N(C)C)nc2ncc(-c3ccc(OC)nc3)cc21` registered a Vd of 1.2 L/kg.

Molecule `CCCOCCn1c(=O)c(NCC(=O)NC)nc2ncc(-c3ccc(OC)nc3)cc21` registered a Vd of 1.3 L/kg.

System in the next data set: not listed separately
The data set can be described thus: Clearance in dog at 2 mg/kg, po and 2 mg/kg, iv. Particulars: in vivo. It counts as ADME, organism-based, Canis lupus familiaris.
Consider `CCCOCCn1c(=O)c(NCC(=O)N(C)C)nc2ncc(-c3ccc(OC)nc3)cc21`, for which the clearance amounted to 9.4 mL/min/kg.

Consider `CCCOCCn1c(=O)c(NCC(=O)NC)nc2ncc(-c3ccc(OC)nc3)cc21`, for which the clearance turned out to be 8.8 mL/min/kg.

System in a further data set: not listed separately
Briefly: Half life in rat at 2 mg/kg, po and 2 mg/kg, iv. It counts as ADME, organism-based. Particulars: in vivo.
As for `CCCOCCn1c(=O)c(NCC(=O)N(C)C)nc2ncc(-c3ccc(OC)nc3)cc21`, the half-life – broadly, how long it takes for the measured level to halve – is 36 min.

In the case of `CCCOCCn1c(=O)c(NCC(=O)N2CCC(O)CC2)nc2cnc(-c3ccc(OC)nc3)cc21`, the half-life was 102 min.

`CCCOCCn1c(=O)c(N[C@H](CC)CO)nc2cnc(-c3ccc(OC)nc3)cc21`: the half-life was 108 min.

`CCCOCCn1c(=O)c(NCC(=O)NC)nc2ncc(-c3ccc(OC)nc3)cc21` gave a half-life of 48 min.

System in another data set: not listed separately
Briefly: Half life in dog at 2 mg/kg, po and 2 mg/kg, iv. The data set is classed as ADME, organism-based, Canis lupus familiaris. Particulars: in vivo.
Molecule `CCCOCCn1c(=O)c(NCC(=O)N(C)C)nc2ncc(-c3ccc(OC)nc3)cc21` gave a half-life of 126 min.

`CCCOCCn1c(=O)c(NCC(=O)NC)nc2ncc(-c3ccc(OC)nc3)cc21`: the half-life was 144 min.

System in a further data set: not listed separately
Briefly: Oral bioavailability in dog at 2 mg/kg. The data set is classed as ADME, organism-based, Canis lupus familiaris. Conditions: in vivo.
On to `CCCOCCn1c(=O)c(NCC(=O)N(C)C)nc2ncc(-c3ccc(OC)nc3)cc21`, for which the bioavailability was determined as 32%.

Molecule `CCCOCCn1c(=O)c(NCC(=O)NC)nc2ncc(-c3ccc(OC)nc3)cc21` gave a bioavailability of 52%.
